From patent US20250332170A1, “VANDETANIB REDUCES INFLAMMATORY CYTOKINES AND AMELIORATES COVID-19” (Collaborations Pharmaceuticals, Inc., priority 2021, published 2025)
“Also recorded” adds a separate entry of the source.

Test system: Pseudo SARS-CoV-2 D614G
Type: cell-based

Row | Compound | SARS-CoV-2 Spike protein-mediated entry, pseudovirus assay
1 | CN1CCN(c2ccc(C(=O)Nc3n[nH]c4ccc(Cc5cc(F)cc(F)c5)cc34)c(NC3CCOCC3)c2)CC1 [Entrectinib] | no significant activity
2 | COc1cc2c(Nc3ccc(Br)cc3F)ncnc2cc1OCC1CCN(C)CC1 [Vandetanib] | active; also recorded: decreased viral entry
